Assay results published in patent publication US20260053861A1, “CELL COMPOSITIONS AND METHODS OF USING THE SAME” (THE REGENTS OF THE UNIVERSITY OF CALIFORNIA, priority 2022, published 2026).
Read-outs that look alike come from different tables or passages of the source.

Tests used:
[1] = tested on: NF-kB p65; assay: NF-kB p65 staining, nuclear localization in SCs exposed to high glucose; assay type: cell-based, human
[2] = tested on: hPSC-SCs; assay: Untargeted primary metabolomics of glucose and BP treated SCs; assay type: cell-based, human
[3] = tested on: hPSC-SCs; assay: Metabolite measurements by biochemical/colorimetric assays (sorbitol, fructose, lactate, glucose, pyruvate); assay type: cell-based, human
[4] = tested on: hPSC-SCs
[5] = tested on: patients suffering from neuropathic pain; settings: cited from earlier work
[6] = Blood glucose levels in STZ-treated mice; settings: BP in chow
[7] = tested on: SOX10+ cells in 2D or 3D NC cultures; assay: Maintenance of SOX10 expression in cultured NC precursors with signaling modulators; assay type: cell-based, human; settings: CHIR99021 exposure together with FGF2, 3D aggregates
Source text: Initial hPSC-based NC differentiation protocols relied on the delamination of putative NC cells from neuroepithelial lineages combined with the prospective isolation of p75+ and/or HNK1+ NC precursors (Bajpai et al., 2010; Lee et al., 2007). While those protocols yield various NC-derived lineages, the levels of SOX10 expression are generally low. In contrast, more directed NC induction protocols based on timed exposure to activators of WNT signaling show robust induction of SOX10 in the majority of cells by day 11 of differentiation (Barber et al., 2019; […] et al., 2016; Menendez et al., 2011; Mica et al., 2013; Tchieu et al., 2017). Upon further culture, those hPSC-derived NC cells can be directed into SOX10+ melanocytes (Mica et al., 2013) but also give rise to SOX10-mesenchymal and neuronal precursors ([…] et al., 2016; Lee et al., 2007; Mica et al., 2013; Tchieu et al., 2017). Since SOX10 is a key marker in the SC lineage (Finzsch et al., 2010), we first screened for conditions that maintained its expression in cultured NC precursors. We determined the percentage of SOX10+ cells in 2D or 3D NC cultures in the presence of modulators of EGF, FGF, WNT, Notch, TGFβ, BMP and endothelin 3 signaling.

[8] = HTS viability of hPSC-SCs in the presence of 30 mM glucose, Prestwick library, Table S4

CC(NC(C)(C)C)C(=O)c1cccc(Cl)c1 (stereo not drawn) [BP, Bupropion]
NF-kB p65 localization to the nucleus in SCs exposed to high glucose [1]: counteracted by BP treatment
cellular lactate level ([2]; SCs): reduced after BP treatment
levels of TCA cycle metabolites succinate, fumarate, citrate, α-ketoglutarate and malate ([2]; SCs): increase in the detected levels
cellular pyruvate increased by high glucose ([2]; high glucose): lowered by BP treatment
concentration of citrate reduced by high glucose ([2]; high glucose): reversed by BP treatment
urea concentration and transporter SLC14A2 mRNA level ([2]; high glucose): decreased in the presence of BP
cellular level of fructose increased by high glucose [3]: countered this effect
intracellular glucose and sucrose levels ([3]; SCs, high glucose): decrease in intracellular glucose and sucrose levels
sorbitol accumulation in SCs ([3]; high glucose): reduced sorbitol accumulation in SCs in a dose-dependent manner
normalized (transformed) viability z-score, number of viable cells ([4]; 30 mM glucose, compounds at 1 μM, 72 hours, DAPI negative RFP positive cells): top hit compound
highest non-toxic dose ([4]; human): 0.7 µM
rescue of viability of high glucose treated SC cultures, dose response ([4]; various concentrations, high glucose): dose-dependent effect on rescuing the viability
benefit in patients with neuropathic pain [5]: some benefit
blood glucose levels [6]: does not affect glucose levels

Cc1c[nH]c(-c2cnc(NCCNc3ccc(C#N)cn3)nc2-c2ccc(Cl)cc2Cl)n1 [CHIR99021, reference compound]
SOX10 expression in cultured NC precursors [7]: maintenance of SOX10 expression in 3D aggregates

Bromocryptine mesylate
z.score.t [4]: −1.272

Butirosin disulfate salt
z.score.t [4]: −0.5169

Carbinoxamine maleate salt
z.score.t [4, 8]: 0.07936

Clofilium tosylate
z.score.t [4, 8]: −0.6227

Colistin sulfate
z.score.t [4]: −0.4139

Cotinine (−)
z.score.t [4]: −0.139

Cyanocobalamin
z.score.t [4]: 0.837

Cytisine (−)
z.score.t [4]: −0.1641

Deptropine citrate
z.score.t [4]: −0.247

Dihydroergotamine tartrate
z.score.t [4]: −0.5417

Dihydroergotoxine mesylate
z.score.t [4, 8]: 0.9377

Eburnamonine (−)
z.score.t [4, 8]: 1.516

FGF2
SOX10 expression in cultured NC precursors [7]: maintenance of SOX10 expression in 3D aggregates

Foliosidine
z.score.t [4]: −0.2802

Guanadrel sulfate
z.score.t [4]: 0.7158

Helveticoside
z.score.t [4]: 1.053

Ifenprodil tartrate
z.score.t [4, 8]: −1.132

Iobenguane sulfate
z.score.t [4, 8]: 0.3845

Isoetharine mesylate salt
z.score.t [4]: 0.5976

Ketanserin tartrate hydrate
z.score.t [4, 8]: −1.137

Lycorine hydrochloride
z.score.t [4]: −2.213

Mephentermine hemisulfate
z.score.t [4]: −0.2359

Merbromin
z.score.t [4]: −0.7567

Pizotifen malate
z.score.t [4, 8]: −0.2329

Pridinol methanesulfonate salt
z.score.t [4]: −0.7183

Retrorsine
z.score.t [4]: −0.3526

S(−)Eticlopride hydrochloride
z.score.t [4, 8]: −0.5169

Solanine alpha
z.score.t [4]: −0.2486

Spiramycin
z.score.t [4, 8]: 0.7158

Terbutaline hemisulfate
z.score.t [4, 8]: −1.238

Thioproperazine dimesylate
z.score.t [4, 8]: −1.223

Timolol maleate salt
z.score.t [4, 8]: −0.6395

Trimeprazine tartrate
z.score.t [4, 8]: −0.411

Trimipramine maleate salt
z.score.t [4, 8]: 0.2361

Tropicamide
z.score.t [4, 8]: −0.1241

Tyloxapol
z.score.t [4]: −1.008

Verteporfin
z.score.t [4, 8]: −1.551

Viomycin sulfate
z.score.t [4]: −0.2329

Vitamin K2
z.score.t [4, 8]: −0.4141
